# Data from patent US11993594B2, “IRAK inhibitors and method for making and using” (Rigel Pharmaceuticals, Inc., priority 2016, dated 2024).
# pEC50: −log10 of the molar value. Like-named read-outs stand apart in the source and are kept apart here.
# System: LPS Induced IL23p19 in THP-1 Cells
# Assay: LPS Induced IL23p19 in THP-1 Cells (with IFNγ Primed) Assay
# Type: cell-based, human
# Settings: THP-1 cells primed with IFNγ 50 ng/mL, LPS 1 ug/mL, 18 hours, 10 pt, read-out: IL23-p19 ELISA, THP1-IFNγ, LPS, 10 pt EC50
# Excerpt: LPS Induced IL23p19 in THP-1 Cells (with IFNγ Primed) Assay
# THP-1 Cells (ATCC, Cat #TIB-202), Dimethyl Sulfoxide (DMSO) (Sigma-Aldrich, Cat #D2650), RPMI 1640 (Cellgro, Cat #10-040-CM), Fetal Bovine Serum (Sigma, Cat #F4135), Albumin From Bovine Serum (BSA) (Sigma-Aldrich, Cat #A7906), LPS (Serotype K-235, Sigma, Product Number L 2143), IFNγ (Peprotech, Cat #300-02) Capture antibody: Human IL-23p19 ELISA (e-Bioscience, Cat. #14-7238-85), Detection antibody: Primary Mouse Biotinylated anti-human IL-12(p40/p70) (e-Bioscience, Cat. #13-7129-85), Secondary HRP-conjugated Streptavidin (R&D Systems, Cat #DY998), 1×PBST Washing Buffer (PBS-Tween tablet) (VWR International, Cat #80058-558), ELISA Blocking Buffer (PBS with 1% BSA), ELISA Dilution Buffer (PBS with 1% BSA), 384 Well Flat-Bottom, MaxiSorp Black Immuno Plates (Thermo Scientific, Cat #12-565-346), 384 Well Flat-Bottom, White Tissue Culture Plates (Thermo Scientific, Cat #12-565-343), Super Signal ELISA Pico Chemiluminescent Substrate (Thermo Scientific, Cat #37070), Cell Titer Glo reagent (Promega, Cat #G7573), Positive control, IKK2VI inhibitor (Calbiochem, Cat #401483), AquaMax 4000 plate washer (Molecular Devices), Luminometer, Wallac Victor2 1420 Multilabel Counter.
# On day 1, 50K/well THP-1 cells were seeded and primed with IFNγ (50 ng/mL) in 384-well plates for about 18 hours in RPMI media with 10% FBS. On day 2, the compound was serially diluted in DMSO from 5 mM in 3-fold dilutions, and then diluted 1:125 in RPMI media with 10% FBS. 50 μL/well 2× compound was added to 50 μL/well THP-1 cells (with IFNγ primed) in duplicate in 384 well tissue culture plates. The cells were pre-incubated with compound for 1 hour at 37° C., 5% CO2 before addition of 10 μL/well 11×LPS to give a final concentration of 1 ug/mL LPS. Day 3, after stimulation for 18 hours at 37° C., 5% CO2, the assay plate was centrifuged and 70 μL/well supernatant was harvested. IL-23p19 protein in 70 µL/well of supernatant was measured by sandwich ELISA, and 25 μl/well Cell Titer Glo reagent was added to the remaining cells to measure compound toxicity.
# Human IL-23p19 Sandwich ELISA:
# Maxisorp immuno ELISA plates were pre-coated with 25 μL/well of anti-IL-23p19 capture antibody (2.5 ug/mL) in PBS overnight at room temperature. After washing with 1×PBST, the plates were blocked using 100 μL/well of 1% BSA in PBS for 2 hours at room temperature. The plates were washed three times with 1×PBST and 70 μL/well supernatant were added. The plates were incubated at room temperature for 2 hours with shaking and washed three times with 1×PBST. 25 μL/well of biotin labeled anti-IL-12(p40/p70) detection antibody (100 ng/mL) in PBS with 1% BSA was added and the plates were incubated at room temperature for 2 hours with shaking. After washing three times with 1×PBST, 25 μL/well of streptavidin-HRP (1:200) in PBS with 1% BSA was added and the plates were incubated at room temperature for 20 minutes with shaking. The plates were washed three times with 1×PBST and 25 μL/well of Super Signal ELISA Pico Chemiluminescent Substrate were added. The plates were read with a luminometer, and the chemiluminescence values were entered into Athena (Rigel) for curve fitting, EC50 calculation, and database storage. […]
pEC50 (Table 1),pEC50 (Table 2),pEC50 (Table 3),"pEC50 (Homo sapiens, Table 1)",SMILES
7.71,7.71,,,"CCO[C@H]1CC[C@H](n2cc(NC(=O)c3coc(-c4cn[nH]c4)n3)c(-c3ccncn3)n2)CC1 [Compound I-6, N-(1-((1r,4r)-4-ethoxycyclohexyl)-3-(pyrimidin-4-yl)-1H-pyrazol-4-yl)-2-(1H-pyrazol-4-yl)oxazole-4-carboxamide]"
,,4.69,,"Cn1cc(NC(=O)c2coc(-c3cnn(CC4CC4)c3)n2)c(-c2ccccn2)n1 [Compound I-19, 2-(1-(cyclopropylmethyl)-1H-pyrazol-4-yl)-N-(1-methyl-3-(pyridin-2-yl)-1H-pyrazol-4-yl)oxazole-4-carboxamide]"
5.04,5.04,,,"CCOC1CCC(n2ncc(NC(=O)c3coc(-c4cn[nH]c4)n3)c2-c2nc(F)ccc2F)CC1 [Compound I-14, N-(5-(3,6-difluoropyridin-2-yl)-1-((1r,4R)-4-ethoxycyclohexyl)-1H-pyrazol-4-yl)-2-(1H-pyrazol-4-yl)oxazole-4-carboxamide]"
,,,7.13,"O=C(Nc1cn([C@H]2CC[C@H](N3CCOCC3)CC2)nc1-c1nc(F)ccc1F)c1coc(-c2cn[nH]c2)n1 [Compound I-37, N-(3-(3,6-difluoropyridin-2-yl)-1-((1r,4r)-4-morpholinocyclohexyl)-1H-pyrazol-4-yl)-2-(1H-pyrazol-4-yl)oxazole-4-carboxamide]"
